21 compounds from patent US9365522B2, “Pyrazole amide derivative” (AMGEN INC., priority 2015, dated 2016) can be followed below.

One assay concerns the target T1, ligand binding domain of human ROR gamma (Homo sapiens, UniProt P51449).
T1 construct: NM_001001523; expressed in transfected cells; host or cells: HEK293T
T1 sequence (P51449 247-497 isoform P51449-2): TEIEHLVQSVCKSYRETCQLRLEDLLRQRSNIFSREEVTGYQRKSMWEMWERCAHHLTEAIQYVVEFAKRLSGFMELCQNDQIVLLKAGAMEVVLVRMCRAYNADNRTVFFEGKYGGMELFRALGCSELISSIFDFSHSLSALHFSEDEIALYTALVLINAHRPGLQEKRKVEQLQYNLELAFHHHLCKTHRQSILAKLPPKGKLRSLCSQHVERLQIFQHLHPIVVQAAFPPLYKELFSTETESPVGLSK
The assay is described as follows: ROR gamma reporter gene assay (GAL4-RORγ LBD luciferase, Dual-Glo). The class given is cell-based. Conditions: HEK293T cells transfected with pM-ROR gamma, 8 concentrations 3.5 nM to 10.5 μM, 24 h incubation. The essentials: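 HEK293T cells were co-transfected with GAL4 DBD fused to human RORγ LBD (aa 247-497), a 5×UAS firefly luciferase reporter and CMV-driven renilla luciferase, in medium with 10% charcoal-stripped FBS.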
A general note: A reporter such as luciferase makes a cellular process visible.
As for `CC(C)(C)CN(CC(=O)c1c(Cl)cncc1Cl)C(=O)c1cnn(C2CCC(C)(C(=O)O)CC2)c1Cl` (stereo not drawn) [Example 276, trans-4-(5-chloro-4-((2-(3,5-dichloropyridin-4-yl)-2-oxoethyl)-(2,2-dimethylpropyl)carbamoyl)pyrazol-1-yl)-1-methylcyclohexane-1-carboxylic acid], the “result (pIC50, inhibition of RORγ transcriptional activity)” value is on record as 6.91.

The assay is the same for the next values; noted with them: HEK293T cells transfected with pM-ROR gamma, 8 concentrations 3.5 nM to 10.5 μM, 24 h incubation; read-out: result (pIC50, inhibition of RORγ transcriptional activity) (converted).
Turning to `O=C(CN(CC12CCC(CC1)O2)C(=O)c1cnn([C@H]2CC[C@H](C(=O)O)CC2)c1C(F)(F)F)c1c(Cl)cncc1Cl` [Example 262, trans-4-(4-((2-(3,5-dichloropyridin-4-yl)-2-oxoethyl)-(7-oxabicyclo[2.2.1]heptan-4-ylmethyl)carbamoyl)-5-(trifluoromethyl)pyrazol-1-yl)cyclohexane-1-carboxylic acid], the IC50 was 40700 pM. The same measure, in the same setting: for `CC(C)(C)CN(CC(=O)c1c(Cl)cccc1C(F)(F)F)C(=O)c1cnn(C23CCC(C(=O)O)(CC2)CC3)c1C(F)(F)F` [Example 263, 4-(4-((2-(2-chloro-6-(trifluoromethyl)phenyl)-2-oxoethyl)-(2,2-dimethylpropyl)carbamoyl)-5-(trifluoromethyl)pyrazol-1-yl)bicyclo[2.2.2]octane-1-carboxylic acid] the value was 5890 pM; for `CC1(C)[C@@H]2C[C@H](N(CC(=O)c3c(Cl)cncc3Cl)C(=O)c3cnn([C@H]4CC[C@H](C(=O)O)CC4)c3C(F)(F)F)C[C@@H]21` [Example 264, trans-4-(4-((2-(3,5-dichloropyridin-4-yl)-2-oxoethyl)-((1R,3r,5S)-6,6-dimethyl-3-bicyclo[3.1.0]hexanyl)carbamoyl)-5-(trifluoromethyl)pyrazol-1-yl)cyclohexane-1-carboxylic acid], 8130 pM. The same measure, in the same setting: for `CC(C)(C)CN(CC(=O)c1c(Cl)cccc1C(F)(F)F)C(=O)c1cnn([C@H]2CC[C@](C)(C(=O)O)CC2)c1C(F)(F)F` [Example 265] the value was 18200 pM; for `CC1(C)CC(CN(CC(=O)c2c(Cl)cc(F)cc2Cl)C(=O)c2cnn(C34CCC(C(=O)O)(CC3)CC4)c2C(F)(F)F)C1` [Example 266, 4-(4-((2-(2,6-dichloro-4-fluorophenyl)-2-oxoethyl)-((3,3-dimethylcyclobutyl)methyl)carbamoyl)-5-(trifluoromethyl)pyrazol-1-yl)bicyclo[2.2.2]octane-1-carboxyIic acid], 5370 pM; for `CC12CCC(CN(CC(=O)c3c(Cl)cncc3Cl)C(=O)c3cnn([C@H]4CC[C@](C)(C(=O)O)CC4)c3C(F)(F)F)(CC1)C2` [Example 267, trans-4-(4-((2-(3,5-dichloropyridin-4-yl)-2-oxoethyl)-((1-methyl-4-bicyclo[2.2.1]heptanyl)methyl)carbamoyl)-5-(trifluoromethyl)pyrazol-1-yl)-1-methylcyclohexane-1-carboxylic acid], 13500 pM. Still for that read-out and setting: for `Cc1cc(Cl)cc(C)c1C(=O)CN(Cc1cc(F)cc(F)c1)C(=O)c1cnn([C@H]2CC[C@H](C(=O)O)CC2)c1C(F)(F)F` [Example 268, trans-4-(4-((2-(4-chloro-2,6-dimethylphenyl)-2-oxoethyl)-((3,5-difluorophenyl)methyl)carbamoyl)-5-(trifluoromethyl)pyrazol-1-yl)cyclohexane-1-carboxylic acid] the value was 107000 pM; for `Cc1cc(C)c(C(=O)CN(Cc2cc(F)cc(F)c2)C(=O)c2cnn([C@H]3CC[C@H](C(=O)O)CC3)c2C(F)(F)F)c(Cl)c1` [Example 269, trans-4-(4-((2-(2-chloro-4,6-dimethylphenyl)-2-oxoethyl)-((3,5-difluorophenyl)methyl)carbamoyl)-5-(trifluoromethyl)pyrazol-1-yl)cyclohexane-1-carboxylic acid], 8130 pM.

Consider `C[C@]1(C(=O)O)CC[C@H](n2ncc(C(=O)N(CC(=O)c3c(Cl)cccc3C(F)(F)F)CC3(F)CCCC3)c2C(F)(F)F)CC1` [Example 270, trans-4-(4-((2-(2-chloro-6-(trifluoromethyl)phenyl)-2-oxoethyl)-((1-fluorocyclopentyl)methyl)carbamoyl)-5-(trifluoromethyl)pyrazol-1-yl)-1-methylcyclohexane-1-carboxylic acid], for which the IC50 is 16200 pM. Same read-out and setting: the result for `O=C(CN(CC1(F)CCCC1)C(=O)c1cnn(C23CCC(C(=O)O)(CC2)CC3)c1C(F)(F)F)c1c(Cl)cc(F)cc1Cl` [Example 271, 4-(4-((2-(2,6-dichloro-4-fluorophenyl)-2-oxoethyl)-((1-fluorocyclopentyl)methyl)carbamoyl)-5-(trifluoromethyl)pyrazol-1-yl)bicyclo[2.2.2]octane-1-carboxylic acid] reads 5130 pM; that for `C[C@]1(C(=O)O)CC[C@H](n2ncc(C(=O)N(CC(=O)c3c(Cl)cncc3Cl)CC3(F)CCCC3)c2C(F)(F)F)CC1` [Example 272, trans-4-(4-((2-(3,5-dichloropyridin-4-yl)-2-oxoethyl)-((1-fluorocyclopentyl)methyl)carbamoyl)-5-(trifluoromethyl)pyrazol-1-yl)-1-methylcyclohexane-1-carboxylic acid], 11200 pM; that for `CC1(C)CCC(N(CC(=O)c2c(Cl)cc(F)cc2Cl)C(=O)c2cnn(C34CCC(C(=O)O)(CC3)CC4)c2C(F)F)CC1` [Example 273, 4-(4-((2-(2,6-dichloro-4-fluorophenyl)-2-oxoethyl)-(4,4-dimethylcyclohexyl)carbamoyl)-5-(difluoromethyl)pyrazol-1-yl)bicyclo[2.2.2]octane-1-carboxylic acid], 14100 pM. Same read-out and setting: the result for `CC12CCC(CN(CC(=O)c3c(Cl)cc(F)cc3Cl)C(=O)c3cnn([C@H]4CC[C@](C)(C(=O)O)CC4)c3C(F)(F)F)(CC1)C2` [Example 274, trans-4-(4-((2-(2,6-dichloro-4-fluorophenyl)-2-oxoethyl)-((1-methyl-4-bicyclo[2.2.1]heptanyl)methyl)carbamoyl)-5-(trifluoromethyl)pyrazol-1-yl)-1-methylcyclohexane-1-carboxylic acid] reads 8320 pM; that for `CC12CCC(CN(CC(=O)c3c(Cl)cc(Cl)cc3Cl)C(=O)c3cnn([C@H]4CC[C@](C)(C(=O)O)CC4)c3C(F)(F)F)(CC1)C2` [Example 275, trans-4-(4-((1-methyl-4-bicyclo[2.2.1]heptanyl)methyl-(2-oxo-2-(2,4,6-trichlorophenyl)ethyl)carbamoyl)-5-(trifluoromethyl)pyrazol-1-yl)-1-methylcyclohexane-1-carboxylic acid], less than 3470 pM; that for `Cc1cc(Cl)c(C(=O)CN(C(=O)c2cnn([C@H]3CC[C@](C)(C(=O)O)CC3)c2C(F)(F)F)[C@H]2C[C@@H]3[C@H](C2)C3(C)C)c(Cl)c1` [Example 277, trans-4-(4-((2-(2,6-dichloro-4-methylphenyl)-2-oxoethyl)((1R,3r,5S)-6,6-dimethylbicyclo[3.1.0]hexan-3-yl)carbamoyl)-5-(trifluoromethyl)-1H-pyrazol-1-yl)-1-methylcyclohexanecarboxylic acid], 7240 pM.

With `CC1(C)[C@@H]2C[C@H](N(CC(=O)c3c(Cl)cccc3Cl)C(=O)c3cnn([C@H]4CC[C@](C)(C(=O)O)CC4)c3C(F)(F)F)C[C@@H]21` [Example 278, trans-4-(4-((2-(2,6-dichlorophenyl)-2-oxoethyl)((1R,3r,5S)-6,6-dimethylbicyclo[3.1.0]hexan-3-yl)carbamoyl)-5-(trifluoromethyl)-1H-pyrazol-1-yl)-1-methylcyclohexanecarboxylic acid], the IC50 is 11700 pM.

On to `Cc1cc(C)c(C(=O)CN(C(=O)c2cnn([C@H]3CC[C@](C)(C(=O)O)CC3)c2C(F)(F)F)C2CCC(C)(C)CC2)c(Cl)c1` [Example 279, trans-4-(4-((2-(2-chloro-4,6-dimethylphenyl)-2-oxoethyl)-(4,4-dimethylcyclohexyl)carbamoyl)-5-(trifluoromethyl)pyrazol-1-yl)-1-methylcyclohexane-1-carboxylic acid], for which the IC50 is 38000 pM.

Turning to `Cc1cc(Cl)cc(C)c1C(=O)CN(C(=O)c1cnn([C@H]2CC[C@](C)(C(=O)O)CC2)c1C(F)(F)F)C1CCC(C)(C)CC1` [Example 280, trans-4-(4-((2-(4-chloro-2,6-dimethylphenyl)-2-oxoethyl)-(4,4-dimethylcyclohexyl)carbamoyl)-5-(trifluoromethyl)pyrazol-1-yl)-1-methylcyclohexane-1-carboxylic acid], the IC50 was 245000 pM. On the same count and under the same terms, the result for `C[C@]1(C(=O)O)CC[C@H](n2ncc(C(=O)N(CC(=O)c3c(Cl)cccc3Cl)CC3(F)CCCC3)c2C(F)(F)F)CC1` [Example 281, trans-4-(4-((2-(2,6-dichlorophenyl)-2-oxoethyl)-((1-fluorocyclopentyl)methyl)carbamoyl)-5-(trifluoromethyl)pyrazol-1-yl)-1-methylcyclohexane-1-carboxylic acid] reads 4270 pM; that for `Cc1cc(Cl)c(C(=O)CN(CC2(F)CCCC2)C(=O)c2cnn([C@H]3CC[C@](C)(C(=O)O)CC3)c2C(F)(F)F)c(Cl)c1` [Example 282, trans-4-(4-((2-(2,6-dichloro-4-methylphenyl)-2-oxoethyl)-((1-fluorocyclopentyl)methyl)carbamoyl)-5-(trifluoromethyl)pyrazol-1-yl)-1-methylcyclohexane-1-carboxylic acid], 3390 pM.
